Drawing on patent US10123993B2, “Cyclic ureas as inhibitors of rock” (BRISTOL-MYERS SQUIBB COMPANY, priority 2015, dated 2018), this text covers IC50 for twelve compounds.

ROCK2, sequence (O75116 whole entry, species assumed): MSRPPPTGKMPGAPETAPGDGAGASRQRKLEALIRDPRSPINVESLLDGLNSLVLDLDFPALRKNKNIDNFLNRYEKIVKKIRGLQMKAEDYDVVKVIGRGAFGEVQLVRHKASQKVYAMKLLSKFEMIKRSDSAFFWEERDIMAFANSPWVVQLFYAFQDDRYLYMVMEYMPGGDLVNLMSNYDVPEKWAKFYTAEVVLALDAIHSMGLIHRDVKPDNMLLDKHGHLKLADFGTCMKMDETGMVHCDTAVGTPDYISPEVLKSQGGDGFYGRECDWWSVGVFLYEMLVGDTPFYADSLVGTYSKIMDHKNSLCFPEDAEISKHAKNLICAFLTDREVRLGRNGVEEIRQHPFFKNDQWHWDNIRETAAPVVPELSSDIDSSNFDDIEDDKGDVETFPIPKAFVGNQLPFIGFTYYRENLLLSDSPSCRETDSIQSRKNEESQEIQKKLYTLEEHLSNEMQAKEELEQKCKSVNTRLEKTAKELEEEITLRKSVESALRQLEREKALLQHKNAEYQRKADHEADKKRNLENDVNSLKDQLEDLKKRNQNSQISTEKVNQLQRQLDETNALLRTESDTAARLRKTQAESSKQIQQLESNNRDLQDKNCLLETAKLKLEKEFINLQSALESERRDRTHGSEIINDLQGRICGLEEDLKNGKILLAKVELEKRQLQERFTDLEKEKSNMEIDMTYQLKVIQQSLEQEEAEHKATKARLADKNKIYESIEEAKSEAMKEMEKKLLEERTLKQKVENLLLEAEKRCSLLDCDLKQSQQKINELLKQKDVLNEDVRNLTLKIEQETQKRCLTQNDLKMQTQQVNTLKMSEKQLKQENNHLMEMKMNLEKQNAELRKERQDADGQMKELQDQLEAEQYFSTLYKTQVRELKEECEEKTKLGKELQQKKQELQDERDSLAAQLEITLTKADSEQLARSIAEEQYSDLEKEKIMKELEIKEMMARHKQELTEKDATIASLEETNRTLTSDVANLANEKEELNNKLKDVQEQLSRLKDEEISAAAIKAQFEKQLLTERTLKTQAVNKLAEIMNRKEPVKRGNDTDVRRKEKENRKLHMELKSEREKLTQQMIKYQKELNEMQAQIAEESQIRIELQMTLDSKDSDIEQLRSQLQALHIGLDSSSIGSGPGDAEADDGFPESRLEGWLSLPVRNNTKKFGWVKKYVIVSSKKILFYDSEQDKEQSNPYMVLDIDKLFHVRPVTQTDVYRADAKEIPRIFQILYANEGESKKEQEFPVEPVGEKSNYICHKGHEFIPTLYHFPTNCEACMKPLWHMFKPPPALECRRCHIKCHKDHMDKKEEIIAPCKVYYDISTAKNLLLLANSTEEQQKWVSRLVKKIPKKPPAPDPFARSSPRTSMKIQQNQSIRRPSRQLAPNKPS

The experiment concerns the target ROCK2 (Homo sapiens, UniProt O75116). Put plainly: ROCK2 kinase inhibition assay (Caliper LABCHIP, FITC peptide substrate). It counts as biochemical. The conditions noted are these: 5 μM ATP, 1.5 μM peptide substrate; value ranges. On the procedure:
The effectiveness of compounds of the present invention as ROCK inhibitors can be determined in a 30 μL assay containing 20 mM HEPES, pH 7.5, 20 mM MgCl2, 0.015% Brij-35, 4 mM DTT, 5 μM ATP and 1.5 μM peptide substrate (FITC-AHA-AKRRRLSSLRA-OH). Compounds were dissolved in DMSO so that the final concentration of DMSO was <2%, and the reaction was initiated with Rho kinase variants. After incubation, the reaction was terminated by the addition of EDTA and the phosphorylated and non-phosphorylated peptides separated using a LABCHIP® 3000 Reader (Caliper Life Sciences). […] Compounds were tested in dose-response format, and the inhibition of kinase activity was calculated at each concentration of compound. The inhibition data were fit using a curve-fitting program to determine the IC50; i.e., the concentration of compound required to inhibit 50% of kinase activity.
Representative Examples were tested in the ROCK2 assay described above and found having ROCK inhibitory activity.
In the case of `CCc1nc(-n2ccn(C(C)c3cccc(OC)c3)c2=O)ccc1-c1cn[nH]c1` (single isomer, unassigned) [Example 184, 1-(6-ethyl-5-(1H-pyrazol-4-yl)pyridin-2-yl)-3-(1-(3-methoxy-phenyl)-ethyl)-1H-imidazol-2(3H)-one], the IC50 was 200 to 2000 nM.
On to `COc1cccc(C(C)n2ccn(-c3ccc(-c4cn[nH]c4)c(C)n3)c2=O)c1` (single isomer, unassigned) [Example 188, 1-(1-(3-methoxy-phenyl)ethyl)-3-(6-methyl-5-(1H-pyrazol-4-yl)pyridin-2-yl)-1H-imidazol-2(3H)-one], for which the IC50 is under 2 nM.
In turn, `COc1cccc(C(C)n2ccn(-c3ccc(-c4cn[nH]c4)c(C)n3)c2=O)c1` (single isomer, unassigned) [Example 189, 1-(1-(3-methoxy-phenyl)-ethyl)-3-(6-methyl-5-(1H-pyrazol-4-yl)pyridin-2-yl)-1H-imidazol-2(3H)-one] returned a half-maximal inhibitory concentration (IC50) of 20.1 to 200 nM.
Compound `COc1cccc(C(C)N2CCN(c3ccc(-c4cn[nH]c4)c(C)c3)C2=O)c1` (single isomer, unassigned) [Example 192, 1-(1-(3-methoxy-phenyl)-ethyl)-3-(3-methyl-4-(1H-pyrazol-4-yl)phenyl) imidazolidin-2-one] had an IC50 of 200 to 2000 nM.
As for `COc1cccc(C(C)N2CCN(c3ccc(-c4cn[nH]c4)c(C)c3)C2=O)c1` (single isomer, unassigned) [Example 193, 1-(1-(3-methoxy-phenyl)-ethyl)-3-(3-methyl-4-(1H-pyrazol-4-yl)phenyl) imidazolidin-2-one], the IC50 was in the range of 2.1 to 20 nM.
`CC(c1cccc(OCC2CC2)c1)N1CCN(c2ccc(-c3cn[nH]c3)cc2)C1=O` (single isomer, unassigned) [Example 195, 1-(4-(1H-pyrazol-4-yl)-phenyl)-3-(1-(3-(cyclo-propyl-methoxy)-phenyl)-ethyl)-imidazolidin-2-one] came in with an IC50 of 200 to 2000 nM.
In turn, `CC(c1cccc(OCC2CC2)c1)N1CCN(c2ccc(-c3cn[nH]c3)cc2)C1=O` (single isomer, unassigned) [Example 196, 1-(4-(1H-pyrazol-4-yl)-phenyl)-3-(1-(3-(cyclo-propyl-methoxy)-phenyl)-ethyl)-imidazolidin-2-one] registered an IC50 of 2.1 to 20 nM.
Compound `COc1cc(F)cc(C(C)N2CCN(c3ccc(-c4cn[nH]c4)cc3)C2=O)c1` (single isomer, unassigned) [Example 197, 1-(4-(1H-pyrazol-4-yl)-phenyl)-3-(1-(3-fluoro-5-methoxy-phenyl)ethyl) imidazolidin-2-one] showed an IC50 of under 2 nM.
Compound `COc1cc(F)cc(C(C)N2CCN(c3ccc(-c4cn[nH]c4)cc3)C2=O)c1` (single isomer, unassigned) [Example 198, 1-(4-(1H-pyrazol-4-yl)-phenyl)-3-(1-(3-fluoro-5-methoxy-phenyl)ethyl) imidazolidin-2-one] yielded an IC50 of 200 to 2000 nM.
Regarding `Cc1nc(N2CCN(C(C)c3cccc(OCC4CC4)c3)C2=O)ccc1-c1cn[nH]c1` (single isomer, unassigned) [Example 204, 1-(1-(3-(cyclopropyl-methoxy)-phenyl)-ethyl)-3-(6-methyl-5-(1H-pyrazol-4-yl)pyridin-2-yl)-imidazolidin-2-one], the IC50 was 20.1 to 200 nM.
For the compound `COc1cc(F)cc(C(C)N2CCN(c3ccc(-c4cn[nH]c4)c(C)n3)C2=O)c1` (single isomer, unassigned) [Example 206, 1-(1-(3-fluoro-5-methoxy-phenyl)-ethyl)-3-(6-methyl-5-(1H-pyrazol-4-yl)pyridin-2-yl)-imidazolidin-2-one], the IC50 was under 2 nM.
With `COc1cc(F)cc(C(C)N2CCN(c3ccc(-c4cn[nH]c4)c(C)n3)C2=O)c1` (single isomer, unassigned) [Example 207, 1-(1-(3-fluoro-5-methoxyphenyl)ethyl)-3-(6-methyl-5-(1H-pyrazol-4-yl)pyridin-2-yl)imidazolidin-2-one], the IC50 was 200 to 2000 nM.
